{
  "source": "ChEMBL document CHEMBL1126466",
  "about": "“Chemical synthesis of D-erythro-sphingosine-1-phosphate, and its inhibitory effect on cell motility” (1992)",
  "assay_type_in_all_cases": "functional, B16/F1",
  "key": {"[1]": {"experiment": "The compound was tested for inhibitory effect on motility of mouse melanoma B16/Fl cells in an in vitro Matri gel-coated transwell assay system at 0.001 uM concentration"}, "[2]": {"experiment": "The compound was tested for inhibitory effect on motility of mouse melanoma B16/Fl cells in an in vitro Matri gel-coated transwell assay system at 0.01 uM concentration expressed as percent migration"}, "[3]": {"experiment": "The compound was tested for inhibitory effect on motility of mouse melanoma B16/Fl cells in an in vitro Matri gel-coated transwell assay system at 0.1 uM concentration expressed as percent migration"}, "[4]": {"experiment": "The compound was tested for inhibitory effect on motility of mouse melanoma B16/Fl cells in an in vitro Matri gel-coated transwell assay system at 1 uM concentration"}, "[5]": {"experiment": "The compound was tested for inhibitory effect on motility of mouse melanoma B16/Fl cells in an in vitro Matri gel-coated transwell assay system at 1 uM concentration expressed as percent migration"}, "[6]": {"experiment": "The compound was tested for inhibitory effect on motility of mouse melanoma B16/Fl cells in an in vitro Matri gel-coated transwell assay system at 5 uM concentration expressed as percent migration"}, "[7]": {"experiment": "The compound was tested for inhibitory effect on motility of mouse melanoma B16/Fl cells in an in vitro Matri gel-coated transwell assay system at 0.001 uM concentration expressed as percent migration"}},
  "note": "“And” between values parts separate entries of the source, which are not always exact repeats. Equal entries are not always repeated.",
  "data": [
    {"smiles": "CCCCCCCCCCCCC/C=C/[C@@H](O)[C@@H](N)COP(=O)(O)O", "values": [
      {"measurement": "Migration", "setting": "[1]", "result": 82, "unit": "%"},
      {"measurement": "Migration", "setting": "[2]", "result": "12% and 17%"},
      {"measurement": "Migration", "setting": "[3]", "result": "6% and 12%"},
      {"measurement": "Migration", "setting": "[4]", "result": 10, "unit": "%"},
      {"measurement": "Migration", "setting": "[5]", "result": 8, "unit": "%"},
      {"measurement": "Migration", "setting": "[6]", "result": "34% and 41%"},
      {"measurement": "Migration", "setting": "[7]", "result": 122, "unit": "%"}
    ]},
    {"smiles": "CCCCCCCCCCCCC/C=C/[C@@H](O)[C@@H](N)CO", "note": "[SPHINGOSINE]", "values": [
      {"measurement": "Migration", "setting": "[3]", "result": 90, "unit": "%"},
      {"measurement": "Migration", "setting": "[5]", "result": 78, "unit": "%"},
      {"measurement": "Migration", "setting": "[6]", "result": 12, "unit": "%"}
    ]}
  ]
}
